One substance from patent publication US20220112225A1, “ANANDAMIDE COMPOUNDS” (priority 2019, published 2022) can be followed below.

Data set [1] can be described thus: PO JVC rat terminal PK study at 20 mg/kg (tissue distribution). The note with it: rat, 20 mg/kg PO; for Brain to Blood Ratio (corrected): corrected for 15 μL of blood per gram of brain tissue. The data set is classed as in vivo. The protocol:
Compound 3 was orally dosed at 20 mg/kg to a group of nine, jugular vein cannulated, individually housed male Sprague Dawley rats that were fasted overnight and fed 4 h post-dose to assess its tissue distribution profile. Dosing was performed with 5 mL/kg dosing volumes with 5% DMSO, 95% water used as a dosing vehicle. Terminal blood samples (>230 μL) were taken from groups of 3 animals at each of 3 time-points post dose (1 h, 2 h, and 4 h) by cardiac puncture under CO2 into heparinised Eppendorf tubes (containing 5 μL heparin) on ice containing an equal quantity of water. Two 100 μL aliquots were then placed in duplicate 96 well plates on dry ice. Immediately after blood sampling, brain and eye pair samples were excised, weighed, rinsed, blotted, and snap frozen in liquid N2. Samples were stored in the freezer at −20° C. until bioanalysis.
Tissue samples were weighed and a volume of water 3 times the mass added to samples before homogenization. In the case of eyeballs the lens could not be homogenized, but all other tissues homogenized. The resulting data (tissue distribution parameters) are shown below in Table 2.

Data set [2] in a line: PO JVC rat PK study at 10 mg/kg. It is filed as in vivo. The note with it: male Sprague Dawley rats. The protocol: Compound 3 was orally dosed at 10 mg/kg to a group of 3 individually housed male Sprague Dawley rats that were fasted overnight and fed 4 h post-dose, the rats were fitted with JVCs. Dosing was performed with 5 mL/kg dosing volumes with 5% DMSO 95% water used as a dosing vehicle. Serial blood (150 μL) samples were taken from each animal at each timepoint (0.25 h, 0.5 h, 1 h, 2 h, 4 h, 6 h, 8 h, and 24 h) into heparinised Eppendorf tubes (containing 5 μL heparin) on ice containing an equal quantity of water. Two 100 μL aliquots were then placed in duplicate 96 well plates on dry ice. Samples were stored in the freezer at −20° C. until bioanalysis.
Samples were defrosted and acetonitrile (containing internal standard) was used to precipitate the proteins. All the samples were mixed, centrifuged and the supernatants analysed by LC-MS-MS according to the following procedures: • 1. 20 μL plasma was transferred to a v-bottom 96-well plate. • 2. 80 μL acetonitrile (ACN) containing IS was added to each well. • 3. The plate was sealed and gently mixed for approximately 30 s. • 4. Plates were centrifuged for 10 min at 3500 rpm. • 5. 50 μL supernatant was transferred to a fresh v-bottom 96-well plate containing 100 μL MilliQ water.
Plates were thermo-sealed and stored at 4° C. until analysis. The resulting PK parameters are shown below in Table 1.

A short description of data set [3]: In vitro brain homogenate stability, rat. It is filed as in vitro ADME. How it is done:
Fresh rodents brains were snap frozen immediately after collection and the assay performed on the same day. Brains were pre-incubated at 37° C. before being spiked with test compound at 1 μM. Samples were collected across 6 time points (0, 10, 20, 30, 45 and 60 minutes) and crashed in cold acetonitrile containing an internal standard (Leucine Enkephalin) and kept on ice until all samples had been collected. The samples were then shaken and centrifuged. 100 μL of supernatant was transferred to a plate containing 50 μL of MilliQ water and mixed. These plates were analyzed by LC-MS/MS over the 6 time points, where the percentage of test compound remaining was calculated using the peak area of the initial timepoint (T=0 minutes) as 100%. The natural log of the percentage remaining was then calculated. The natural log of the percentage remaining versus time (minutes) was plotted on a graph and the gradient of this graph was used to calculate the elimination rate constant (K), The half-life (t1/2) of test compound was calculated using the natural log of 2 divided by the elimination rate constant. The percentage of Compound 2 formed is reported below in Tables 4-6. FIGS. 9A-9F show results of the brain homogenate stability conducted with representative compounds of the Examples.

One may read the Cmax as the maximum level reached in the sampled fluid or tissue. In general, Tmax refers to the time at which the peak concentration occurs. Turning to “2-(5Z,8Z,11Z,14Z)-icosa-5,8,11,14-tetraenamidoethyl (trimethylammonio) ethylphosphate [Compound 3]”, the “Brain to Blood Ratio (corrected)” value in data set [1] (1 h) worked out at 0.25. In addition, in data set [1] (1 h post dose), the Blood was determined as 108.4 ng/mL, the Brain was 28.3 ng/g and the Eye was 1035.4 ng/g. Further, the “Brain to Blood Ratio (corrected)” value in data set [1] (2 h) stood at 1.69. In data set [1] (2 h post dose), this substance had a Blood of 16.7 ng/mL, a Brain of 28.5 ng/g and an Eye of 105.0 ng/g. Also, in data set [1] (4 h), the “Brain to Blood Ratio (corrected)” value is listed as 2.69. In data set [1] (4 h post dose), the Blood turned out to be 12.8 ng/mL, the Brain is listed as 34.6 ng/g and the Eye is 104.4 ng/g. Moreover, in data set [2] (10 mg/kg PO), the AUC0-inf is 2426.6 ng·h/mL, the AUC0-t turned out to be 2348.5 ng·h/mL, the Cmax came to 372 ng/mL and the Tmax amounted to 2.5 h. Further, the Bioavailability in data set [2] (10 mg/kg PO vs 3 mg/kg IV) is recorded as 28 % F. The “Rat t1/2” value in data set [3] (37° C., test compound at 1 μM) is 0.933 h. The “Clearance in brain homogenate stability study (in words)” value in data set [3] (one hour incubation, increasing formation of Compound 2) is on record as “demonstrated a level of clearance”.
